Experiments:
[1] = Stability test of C16 in 10% Solutol HS-15 / 90% PEG 600; type: physicochemical
Procedure: Solutions of 30 mg/mL and 10 mg/mL of C16 were prepared and stored at room temperature and 4°C for 24 h. The stability of C16 was evaluated at 0, 1, 2, 4, 8 and 24 h after formulation by high-performance liquid chromatography-mass spectrometry/mass spectrometry (HPLC-MS/MS) (electrospray ionization, ESI+) analysis using oxybutynin as an internal standard (IS). Analyte samples were diluted 500x with acetonitrile (ACN)/H2O (20:80). This solution was further diluted 100x with an oxybutynin solution (1 ng/μL in ACN/H2O 20:80), giving a final concentration of 0.6 ng/μL and 0.2 ng/μL, respectively, for HPLC-MS/MS analysis (multiple reaction monitoring scan mode, MRM, see Section A of S1 File for more details). All analyses were performed in triplicates.
A.A. Vehicles for single-dose studies a. Stability test of C16 in 10% Solutol HS -15 / 90% PEG 600
Quantification was performed by calculating the ratio of the peak area (counts) of C16 and the IS. Results are expressed as relative differences to the peak ratio at 0 h (%RE, Table A).
Table A. Stability in 10% Solutol HS -15 / 90% PEG 600: peak ratios.
10mg/mL at room temperature
30mg/mL at room temperature
CV: Coefficient of variation; RE: Difference in peak area relative to indicated time point. […]

CYP 1A2 = biological target: T1, CYP 1A2 (Homo sapiens, UniProt P05177); assay: CYP inhibition 1A2 (CEC substrate); type: in vitro ADME; settings: 10 μM
T1 sequence (P05177 1-516): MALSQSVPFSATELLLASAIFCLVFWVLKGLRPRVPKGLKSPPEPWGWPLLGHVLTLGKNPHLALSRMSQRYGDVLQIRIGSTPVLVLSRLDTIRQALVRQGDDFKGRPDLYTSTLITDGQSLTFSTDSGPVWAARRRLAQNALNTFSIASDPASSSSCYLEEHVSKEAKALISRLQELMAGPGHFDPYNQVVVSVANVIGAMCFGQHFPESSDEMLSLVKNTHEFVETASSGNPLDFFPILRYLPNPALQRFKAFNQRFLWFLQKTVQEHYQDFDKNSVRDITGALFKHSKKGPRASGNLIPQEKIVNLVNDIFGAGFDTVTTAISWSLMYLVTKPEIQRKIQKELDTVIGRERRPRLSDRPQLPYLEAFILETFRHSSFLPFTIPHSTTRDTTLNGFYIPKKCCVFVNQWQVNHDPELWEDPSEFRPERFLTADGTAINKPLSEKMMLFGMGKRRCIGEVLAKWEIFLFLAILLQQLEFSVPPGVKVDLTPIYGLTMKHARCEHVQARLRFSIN
From the text: Table 3 In vitro physicochemical, stability and metabolism data. | column: Value

ICR mice = assay: Single-dose PO MTD study; type: in vivo; settings: for Necropsy: gross findings: 72 h post dosing; for Autonomic / Behavioral / Neurologic: first 60 min; for Weigt increase (%): over 72 h, average±SD
Procedure: Male ICR mice (20–26 g), were obtained from BioLASCO Taiwan. Animals were kept in conventional cages with wood chip bedding. Space allocation for 3–5 animals was 30 x 19 x 13 cm. All animals were healthy at the start of the trial and maintained in a well-controlled temperature (20–24°C) and humidity (30%-70%) environment with 12 h light/dark cycles. Free access to a standard lab diet [MFG (Oriental Yeast Co., Ltd., Japan)] and autoclaved tap water were granted.
A single PO and IP dose progression test was conducted in which animals were dosed at a minimum of 72- or 24-h intervals, respectively. C16 (vehicle: 10% Solutol HS-15 / 90% PEG 600) was administered by oral gavage at 10 mL/kg to randomly assigned groups of 2 male and 2 female mice, or by IP injection at 5 mL/kg to randomly assigned groups of 5 male mice. Animals received an initial dose of 10 mg/kg. If 50% of the animals survived for 72 h (PO) or 30 min (IP), the dose for the next cohort was increased. If one or more animals died, the dose for the next cohort was decreased. The next dose level was determined by the decision scheme in Fig 2.
Body weights were recorded before dosing and at the 72- (PO) or 24-h (IP) time point. Gross necropsy was performed in all animals without tissue collection.
dose was increased or decreased in each subsequent test round until the MTD was discovered. Gross necropsy was
performed in all animals without tissue collection.

SK-OV-3 = test system: SK-OV-3; parameters: method as in PMID 26204510; settings: read-out: IC50 in Matrigel invasion assay (SK-OV-3); cited from earlier work

COc1cc(C(=O)/C=C/c2ccc(F)cc2)cc(OC)c1OC [C16, 4-fluoro-3’,4’,5’-trimethoxychalcone]
%RE to 0 h (peak ratio C16/IS) ([1]; 10mg/mL at 4 °C, 1 h): 1.2% | %RE to 0 h (peak ratio C16/IS) ([1]; 10mg/mL at 4 °C, 2 h): -2.9% | %RE to 0 h (peak ratio C16/IS) ([1]; 10mg/mL at 4 °C, 4 h): 1.4% | %RE to 0 h (peak ratio C16/IS) ([1]; 10mg/mL at 4 °C, 8 h): -0.6% | %RE to 0 h (peak ratio C16/IS) ([1]; 10mg/mL at 4 °C, 24 h): -1.4% | %RE to 0 h (peak ratio C16/IS) ([1]; 10mg/mL at room temperature, 1 h): 1.8% | %RE to 0 h (peak ratio C16/IS) ([1]; 10mg/mL at room temperature, 2 h): 1.8% | %RE to 0 h (peak ratio C16/IS) ([1]; 10mg/mL at room temperature, 4 h): -1.0% | %RE to 0 h (peak ratio C16/IS) ([1]; 10mg/mL at room temperature, 8 h): 1.4% | %RE to 0 h (peak ratio C16/IS) ([1]; 10mg/mL at room temperature, 24 h): 2.9% | %RE to 0 h (peak ratio C16/IS) ([1]; 30mg/mL at 4°C, 1 h): 4.8% | %RE to 0 h (peak ratio C16/IS) ([1]; 30mg/mL at 4°C, 2 h): -6.1% | %RE to 0 h (peak ratio C16/IS) ([1]; 30mg/mL at 4°C, 4 h): 3.5% | %RE to 0 h (peak ratio C16/IS) ([1]; 30mg/mL at 4°C, 8 h): 5.0% | %RE to 0 h (peak ratio C16/IS) ([1]; 30mg/mL at 4°C, 24 h): 1.6% | %RE to 0 h (peak ratio C16/IS) ([1]; 30mg/mL at room temperature, 1 h): -0.6% | %RE to 0 h (peak ratio C16/IS) ([1]; 30mg/mL at room temperature, 2 h): 0.2% | %RE to 0 h (peak ratio C16/IS) ([1]; 30mg/mL at room temperature, 4 h): -3.1% | %RE to 0 h (peak ratio C16/IS) ([1]; 30mg/mL at room temperature, 8 h): -5.4% | %RE to 0 h (peak ratio C16/IS) ([1]; 30mg/mL at room temperature, 24 h): 0.3% | Stability of solutions in 10% Solutol HS-15 / 90% PEG 600 ([1]; 10 and 30 mg/mL, room temperature (20–25 °C) and 4°C over 24 h): stable | CYP inhibition 1A2 (CEC substrate) (CYP 1A2): 36 % inhibition of control | tolerated dose (ICR mice; ICR mice, PO oral gavage, single dose): 10 to 300 mg/kg | Deaths (ICR mice; PO 10 mg/kg, F): 0/2 | Necropsy: gross findings (ICR mice; PO 10 mg/kg, F): none | Autonomic (ICR mice; PO 10 mg/kg, F): none | Behavioral (ICR mice; PO 10 mg/kg, F): none | Neurologic (ICR mice; PO 10 mg/kg, F): none | Weigt increase (%) (ICR mice; PO 10 mg/kg, F): 2±3% | Deaths (ICR mice; PO 10 mg/kg, M): 0/2 | Necropsy: gross findings (ICR mice; PO 10 mg/kg, M): none | Autonomic (ICR mice; PO 10 mg/kg, M): none | Behavioral (ICR mice; PO 10 mg/kg, M): none | Neurologic (ICR mice; PO 10 mg/kg, M): none | Weigt increase (%) (ICR mice; PO 10 mg/kg, M): 25±3% | Deaths (ICR mice; PO 30 mg/kg, F): 0/2 | Necropsy: gross findings (ICR mice; PO 30 mg/kg, F): none | Autonomic (ICR mice; PO 30 mg/kg, F): none | Behavioral (ICR mice; PO 30 mg/kg, F): none | Neurologic (ICR mice; PO 30 mg/kg, F): none | Weigt increase (%) (ICR mice; PO 30 mg/kg, F): 6±3% | Deaths (ICR mice; PO 30 mg/kg, M): 0/2 | Necropsy: gross findings (ICR mice; PO 30 mg/kg, M): none | Autonomic (ICR mice; PO 30 mg/kg, M): none | Behavioral (ICR mice; PO 30 mg/kg, M): none | Neurologic (ICR mice; PO 30 mg/kg, M): none | Weigt increase (%) (ICR mice; PO 30 mg/kg, M): 18±3% | Deaths (ICR mice; PO 100 mg/kg, F): 0/2 | Necropsy: gross findings (ICR mice; PO 100 mg/kg, F): none | Autonomic (ICR mice; PO 100 mg/kg, F): none | Behavioral (ICR mice; PO 100 mg/kg, F): Yes: B,C | Neurologic (ICR mice; PO 100 mg/kg, F): none | Weigt increase (%) (ICR mice; PO 100 mg/kg, F): 8±1% | Deaths (ICR mice; PO 100 mg/kg, M): 0/2 | Necropsy: gross findings (ICR mice; PO 100 mg/kg, M): none | Autonomic (ICR mice; PO 100 mg/kg, M): none | Behavioral (ICR mice; PO 100 mg/kg, M): Yes: A,C | Neurologic (ICR mice; PO 100 mg/kg, M): none | Weigt increase (%) (ICR mice; PO 100 mg/kg, M): 25±1% | Deaths (ICR mice; PO 300 mg/kg, F): 0/2 | Necropsy: gross findings (ICR mice; PO 300 mg/kg, F): none | Autonomic (ICR mice; PO 300 mg/kg, F): none | Behavioral (ICR mice; PO 300 mg/kg, F): Yes: A | Neurologic (ICR mice; PO 300 mg/kg, F): none | Weigt increase (%) (ICR mice; PO 300 mg/kg, F): 7±3% | Deaths (ICR mice; PO 300 mg/kg, M): 0/2 | Necropsy: gross findings (ICR mice; PO 300 mg/kg, M): none | Autonomic (ICR mice; PO 300 mg/kg, M): none | Behavioral (ICR mice; PO 300 mg/kg, M): Yes: A | Neurologic (ICR mice; PO 300 mg/kg, M): none | Weigt increase (%) (ICR mice; PO 300 mg/kg, M): 17±0% | maximum tolerated single dose (ICR mice; mouse, oral gavage): > 300 mg/kg | IC50 (SK-OV-3): < 100 nM

Source: PMC5823406, “Vehicle development, pharmacokinetics and toxicity of the anti-invasive agent 4-fluoro-3’,4’,5’-trimethoxychalcone in rodents” (PLoS ONE, 2018)
